The values below are quoted from earlier work in patent US9044480B1, “Compositions and methods for treating HCV” (priority 2011, dated 2015).

In one series the test system is HCV. The following applies: R155K (danoprevir) or R155K/D168V (vaniprevir) mutants detected; cited from earlier work.
Another series concerns HCV R155K mutation. The following applies: clinical trials and replicon cell assays (Bartels et al.; Lu et al.; Zhou et al.); cited from earlier work.

As to `CC(C)(C)OC(=O)N[C@H]1CCCCC/C=C\[C@@H]2C[C@@]2(C(=O)NS(=O)(=O)C2CC2)NC(=O)[C@@H]2C[C@@H](OC(=O)N3Cc4cccc(F)c4C3)CN2C1=O` [danoprevir], the “Viral load rebound in patients receiving treatment” value with HCV is “Viral load rebound”. Also, the “Resistance conferred by the R155K mutation” value with HCV R155K mutation is “high-level resistant”. Consider `COc1ccc2c(O[C@@H]3C[C@H]4C(=O)N[C@]5(C(=O)O)C[C@H]5/C=C\CCCCC[C@H](NC(=O)OC5CCCC5)C(=O)N4C3)cc(-c3csc(NC(C)C)n3)nc2c1` [BILN 2061], for which the “Resistance conferred by the R155K mutation” value in the series on HCV R155K mutation is “high-level resistant”.

`CC[C@@H]1C[C@]1(NC(=O)[C@@H]1C[C@@H]2CN1C(=O)[C@H](C(C)(C)C)NC(=O)OCC(C)(C)CCCCc1cccc3c1CN(C3)C(=O)O2)C(=O)NS(=O)(=O)C1CC1` [vaniprevir]: in the series with HCV, the “Viral load rebound in patients receiving treatment” value is “viral load rebound”.
